# From patent US8716493B2, “Multicyclic compounds and the use thereof” (Cephalon, Inc., priority 2000, dated 2014)
# Structures can show the parent of a compound that is named as a salt.
# Target: recombinant human PARP (Homo sapiens, UniProt P09874)
# Experiment: Measurement of PARP enzymatic activity (transfer of radiolabeled ADP-ribose from NAD+ to protein acceptor)
# Type: biochemical
# Details: Table 1; read-out: PARP IC50
# Method: PARP activity was monitored by transfer of radiolabeled ADP-ribose units from [^32]NAD^+ to a protein acceptor such as histone or PARP itself. […] The reactions were initiated by the addition of 100 μM NAD^+ supplemented with 2 uCi [^32]NAD^+/mL and maintained at room temperature for 12 minutes. […] The amount of acid-insoluble radioactivity, corresponding to polyADP-ribosylated protein, was quantitated in a Wallac MicroBeta scintillation counter.
# Single-point inhibition data were calculated by comparing PARP, VEGFR2, or MLK3 activity in the presence of inhibitor to activity in the presence of DMSO only. Inhibition curves for compounds were generated by plotting percent inhibition versus log10 of the concentration of compound. IC50 values were calculated by nonlinear regression using the sigmoidal dose-response (variable slope) equation in GraphPad Prism as follows: y=bottom+(top−bottom)/(1+10^(log IC50^−x)*Hillslope) where y is the % activity at a given concentration of compound, x is the logarithm of the concentration of compound, bottom is the % inhibition at the lowest compound concentration tested, and top is the % inhibition at the highest compound concentration examined. The values for bottom and top were fixed at 0 and 100, respectively. IC50 values were reported as the average of at least three separate determinations.
# For some compounds, inhibiting data is presented as percent inhibition at a specified concentration. Compounds are tabulated together with compound number, substituents, and enzyme inhibition data.
# recombinant human PARP, sequence (P09874 whole entry): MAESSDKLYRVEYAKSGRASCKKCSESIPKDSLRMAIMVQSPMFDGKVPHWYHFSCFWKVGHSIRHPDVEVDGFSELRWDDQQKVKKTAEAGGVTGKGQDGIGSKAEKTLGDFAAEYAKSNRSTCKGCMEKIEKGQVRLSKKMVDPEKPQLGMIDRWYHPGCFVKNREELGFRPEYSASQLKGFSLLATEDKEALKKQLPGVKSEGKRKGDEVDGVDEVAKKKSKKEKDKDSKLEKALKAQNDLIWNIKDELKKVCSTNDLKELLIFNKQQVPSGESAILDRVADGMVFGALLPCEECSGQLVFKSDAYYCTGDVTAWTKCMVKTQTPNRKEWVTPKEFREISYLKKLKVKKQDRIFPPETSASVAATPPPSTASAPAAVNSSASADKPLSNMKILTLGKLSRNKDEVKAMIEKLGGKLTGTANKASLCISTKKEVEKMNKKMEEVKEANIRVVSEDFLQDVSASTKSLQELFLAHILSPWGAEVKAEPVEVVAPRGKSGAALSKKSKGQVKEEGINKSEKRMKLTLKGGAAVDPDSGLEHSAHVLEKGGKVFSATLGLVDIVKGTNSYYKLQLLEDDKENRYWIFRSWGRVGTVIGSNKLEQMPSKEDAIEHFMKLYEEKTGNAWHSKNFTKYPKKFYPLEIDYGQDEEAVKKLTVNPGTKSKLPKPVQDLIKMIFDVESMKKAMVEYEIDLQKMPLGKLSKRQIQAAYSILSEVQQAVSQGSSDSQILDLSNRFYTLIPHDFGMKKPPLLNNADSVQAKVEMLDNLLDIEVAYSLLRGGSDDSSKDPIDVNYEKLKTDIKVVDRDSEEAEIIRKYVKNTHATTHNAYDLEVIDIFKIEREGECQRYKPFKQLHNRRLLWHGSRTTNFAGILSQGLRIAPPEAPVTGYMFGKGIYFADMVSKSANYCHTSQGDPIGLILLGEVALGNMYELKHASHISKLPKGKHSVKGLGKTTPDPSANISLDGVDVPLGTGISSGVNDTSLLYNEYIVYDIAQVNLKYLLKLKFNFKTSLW
row,IC50 [nM],Compound
1,36,"O=C1NC(=O)c2c1c1c(c3[nH]c4ccccc4c23)CCC1 [Compound 1a, 5,7,8,9,10,11-hexahydrocyclopent[a]pyrrolo[3,4-c]carbazole-5(6H), 7-dione]"
2,946,O=C1c2c3c(c4[nH]c5ccccc5c4c2C(=O)N1CCCO)CCC3 [Compound 1e]
3,819,CCN(CC)CCCN1C(=O)c2c3c(c4[nH]c5ccccc5c4c2C1=O)CCC3 [Compound 1h]
4,250,O=C1c2c3c(c4[nH]c5ccccc5c4c2C(=O)N1S(=O)(=O)c1ccccc1)CCC3 [Compound 1j]
5,160,NCCC(=O)N1C(=O)c2c3c(c4[nH]c5ccccc5c4c2C1=O)CCC3 [Compound 1l]
6,38,NCC(=O)N1C(=O)c2c3c(c4[nH]c5ccccc5c4c2C1=O)CCC3 [Compound 1m]
7,1600,O=C1c2c3c(c4[nH]c5ccccc5c4c2C(=O)N1CCOCc1ccccc1)CCC3 [Compound 1n]
8,1400,"NCCCC[C@H](N)C(=O)n1c2ccccc2c2c3c(c4c(c21)CCC4)C(=O)NC3 [Compound 1v, 11-L-Lysyl-5,7,8,9,10,11-hexahydrocyclopent[a]pyrrolo[3,4-c]carbazole-7(6H)-one dihydrochloride]"

row,Compound,IC50 [nM]
1,"CC(C)(C)OC(=O)NCCCC[C@H](NC(=O)OC(C)(C)C)C(=O)n1c2ccccc2c2c3c(c4c(c21)CCC4)C(=O)NC3 [Compound 1u, 11-[Bis(t-butoxycarbonyl)-L-lysyl]-5,7,8,9,10,11-hexahydrocyclopent[a]pyrrolo[3,4-c]carbazole-7(6H)-one]",1500

# Same assay, conditions: Table 2; read-out: PARP IC50
row,IC50 [nM],Compound
1,25,O=C1NC(=O)c2c1c1c(c3[nH]c4ccc(Br)cc4c23)CCC1 [Compound 2a]
2,9,"COC(=O)CCCC(=O)NCc1ccc2[nH]c3c4c(c5c(c3c2c1)C(=O)NC5=O)CCC4 [Compound 2aa, 3-(N-(4-(Methoxycarbonyl)butanoyl)aminomethyl)-5,7,8,9,10,11-hexahydrocyclopent[a]pyrrolo[3,4-c]carbazole-5(6H), 7-dione]"
3,50,"O=C(O)CCC(=O)NCc1ccc2[nH]c3c4c(c5c(c3c2c1)C(=O)NC5=O)CCC4 [Compound 2ab, 3-(N-(3-(Carboxy)propanoyl)aminomethyl)-5,7,8,9,10,11-hexahydrocyclopent[a]-pyrrolo[3,4-c]carbazole-5(6H), 7-dione]"
4,48,"O=C(O)CCCC(=O)NCc1ccc2[nH]c3c4c(c5c(c3c2c1)C(=O)NC5=O)CCC4 [Compound 2ac, 3-(N-(4-(Carboxy)butanoyl)aminomethyl)-5,7,8,9,10,11-hexahydrocyclopent[a]-pyrrolo[3,4-c]carbazole-5(6H), 7-dione]"
5,93,"CC(C)(C)OC(=O)NCc1ccc2[nH]c3c4c(c5c(c3c2c1)C(=O)NC5=O)CCC4 [Compound 2ad, 3-(N-Boc-aminomethyl)-5,7,8,9,10,11-hexahydrocyclopent[a]pyrrolo[3,4-c]carbazole-5(6H), 7-dione]"
6,8,O=C1NC(=O)c2c1c1c(c3[nH]c4ccc(S(=O)(=O)O)cc4c23)CCC1 [Compound 2ae]
7,27,O=C1NC(=O)c2c1c1c(c3[nH]c4ccc(O)cc4c23)CCC1 [Compound 2ao]
8,32,COc1ccc2[nH]c3c4c(c5c(c3c2c1)C(=O)NC5=O)CCC4 [Compound 2ap]
9,59,CCOCCOc1ccc2[nH]c3c4c(c5c(c3c2c1)C(=O)NC5=O)CCC4 [Compound 2aq]
10,88,CCN(CC)CCOc1ccc2[nH]c3c4c(c5c(c3c2c1)C(=O)NC5=O)CCC4 [Compound 2ar]
11,100,CN(C)CCCOc1ccc2[nH]c3c4c(c5c(c3c2c1)C(=O)NC5=O)CCC4 [Compound 2as]
12,22,O=C1NC(=O)c2c1c1c(c3[nH]c4ccc(OCCN5CCOCC5)cc4c23)CCC1 [Compound 2at]
13,33,CC(=O)Oc1ccc2[nH]c3c4c(c5c(c3c2c1)C(=O)NC5=O)CCC4 [Compound 2au]
14,22,O=C1NC(=O)c2c1c1c(c3[nH]c4ccc(CO)cc4c23)CCC1 [Compound 2aw]
15,102,CC(O)c1ccc2[nH]c3c4c(c5c(c3c2c1)C(=O)NC5=O)CCC4 (stereo not shown) [Compound 2ax]

# Same assay, conditions: Table 3; read-out: PARP IC50
row,IC50 [nM],Compound
1,36,"O=C1NC(=O)c2c1c1c(c3[nH]c4ccccc4c23)CCC1 [Compound 1a, 5,7,8,9,10,11-hexahydrocyclopent[a]pyrrolo[3,4-c]carbazole-5(6H), 7-dione]"
